Assay [1] concerns the target T1, Nonstructural protein 3 (Zika virus, UniProt A0A024AXB9). As to the kind of experiment: Inhibition of Zika virus NS2B-NS3 protease.
Assay [2] in a line: Allosteric inhibition of Flavivirus NS2B-NS3 protease.
The nature of assay [3]: Allosteric inhibition of Flavivirus NS2B-NS3 protease by cell based assay. As to conditions: Orthoflavivirus.
The target of assay [4] is T1, Nonstructural protein 3. Put plainly: Allosteric inhibition of Zika virus NS2B-NS3 protease.
Assay [5] concerns the target T2, Genome polyprotein (West Nile virus, UniProt P06935). As to the kind of experiment: Binding affinity to West Nile virus NS2B-NS3 protease.
The target of assay [6] is T1, Nonstructural protein 3. Put plainly: Binding affinity to Zika virus NS2B-NS3 protease.
Assay [7] addresses T2, Genome polyprotein. As to the kind of experiment: Inhibition of West Nile virus NS2B-NS3 protease.
Assay [8] addresses T3, Nonstructural protein 3 (Zika virus) (UniProt A0A024AXB9). As to the kind of experiment: Inhibition of Zika virus NS2B-NS3 protease assessed as as ratio of K(obs)/[I] using biotin-tagged peptide (P4-P1) as substrate.
Assay [9] concerns the target T1, Nonstructural protein 3. As to the kind of experiment: (§1) Inhibition of Zika virus NS2B-NS3 protease by cell based assay.
For assay [10], the target named is T3, Nonstructural protein 3 (Zika virus). The assay is described as §1.
The target in assay [11] is T1, Nonstructural protein 3. Put plainly: Inhibition of N-terminal His-tagged Zika virus NS2B-NS3 protease (1 to 187 residues) using Boc-Gly-Arg-Arg-AMC as substrate.
The target of assay [12] is T1, Nonstructural protein 3. As to the kind of experiment: Binding affinity to N-terminal His-tagged Zika virus NS2B-NS3 protease (1 to 187 residues) using Boc-Gly-Arg-Arg-AMC as substrate.

Molecules are shown by their SMILES. Where a SMILES comes first, the peptide text is derived from it. The star is where a group is joined. NHBn = c1ccc(CN*)cc1

T2 sequence (P06935 1371-1501 limits assumed): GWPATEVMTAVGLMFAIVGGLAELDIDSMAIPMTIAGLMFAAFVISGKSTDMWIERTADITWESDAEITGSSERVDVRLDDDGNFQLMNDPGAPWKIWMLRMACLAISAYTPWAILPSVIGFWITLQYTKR
T2 sequence (P06935 1502-2120 limits assumed): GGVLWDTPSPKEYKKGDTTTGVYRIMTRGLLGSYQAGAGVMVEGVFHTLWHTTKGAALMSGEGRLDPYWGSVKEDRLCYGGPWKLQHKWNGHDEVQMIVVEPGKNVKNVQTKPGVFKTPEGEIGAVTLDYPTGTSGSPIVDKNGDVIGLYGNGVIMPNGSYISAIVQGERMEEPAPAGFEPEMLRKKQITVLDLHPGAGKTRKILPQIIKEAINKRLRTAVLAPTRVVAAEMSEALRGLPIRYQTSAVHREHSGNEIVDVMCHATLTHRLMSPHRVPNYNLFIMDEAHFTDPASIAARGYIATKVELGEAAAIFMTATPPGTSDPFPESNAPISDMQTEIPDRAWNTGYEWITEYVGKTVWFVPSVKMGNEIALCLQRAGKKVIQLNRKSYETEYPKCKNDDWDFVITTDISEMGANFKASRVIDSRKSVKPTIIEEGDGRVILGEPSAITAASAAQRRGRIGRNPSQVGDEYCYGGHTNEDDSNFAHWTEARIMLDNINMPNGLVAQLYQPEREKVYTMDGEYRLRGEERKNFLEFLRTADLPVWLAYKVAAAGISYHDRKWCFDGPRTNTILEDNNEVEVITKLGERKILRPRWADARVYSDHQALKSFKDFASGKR

As a reminder, the Ki is a dissociation constant, usually derived from enzyme kinetics or from competition with a known ligand. Read a high Ki as a looser hold on the target. `CN[C@@H](C)C(=O)N[C@H](C(=O)N1CC[C@H](C)[C@H]1C(=O)Nc1ccccc1-c1ncccn1)C1CCCCC1` returned a Ki at Nonstructural protein 3 [1] of 430 nM.
A word on the IC50: it is the concentration that gives 50% inhibition. A lower IC50 goes with greater potency. As usually defined, the EC50 is the concentration giving half of the maximal effect. In assay [2], `C[C@@H]1CN(CC(=O)N2CCCC2)CCN1` displayed an IC50 of 380 nM. Moreover, the response in assay [3] was half-maximal at 1000 nM (EC50).
In the case of `C[C@@H]1CN(CC(=O)N2CC(C)(C)c3ncc(Cc4ccc(F)cc4)cc32)[C@@H](CN2CCOC[C@H]2C)CN1`, it took 820 nM to reach half-maximal inhibition on Nonstructural protein 3 [4] (IC50).
As a reminder, the Kd is the concentration at which binding is half-saturated. With `CN[C@@H](C)C(=O)N[C@H]1CC[C@H]2CC[C@@H](C(=O)NC(c3ccccc3)c3ccccc3)N2C1=O`, the IC50 against Nonstructural protein 3 [1] and against Genome polyprotein [7] was 1900 nM throughout. The Kd at Genome polyprotein [5] and at Nonstructural protein 3 [6] was 2000 nM in each case.
Regarding `CN[C@@H](C)C(=O)N[C@H]1CCCC[C@H]2CC[C@@H](C(=O)NC(c3ccccc3)c3ccccc3)N2C1=O`, on Nonstructural protein 3 [1], the IC50 came out at 100 nM.
In the case of `CN[C@@H](C)C(=O)N[C@H](C(=O)N1CCC[C@H]1c1nc(C(=O)c2ccc(F)cc2)cs1)C1CCCCC1`, the Ratio in [8] amounted to 2.94 ×10⁶ /M/s.
For the compound `CC(C)[C@H](NC(=O)[C@H](C)N)C(=O)N1CCC[C@H]1C(=O)NCc1ccccc1` (H-Ala-Val-Pro-NHBn), the Ki at Nonstructural protein 3 [1] was found to be 140 nM.
`C[C@@H]1CN(CC(=O)N2CC(C)(C)c3nc(CO)c(Cc4ccc(F)cc4)cc32)[C@@H](CN2CCOC[C@H]2C)CN1` [ASTX-660]: the Ki on Nonstructural protein 3 [1] was in the range of 800 to 8900 nM.
On to `CC[C@H](NC(=O)[C@H](C)NC)C(=O)N1C[C@@H](O)C[C@H]1Cc1c(-c2[nH]c3cc(F)ccc3c2C[C@@H]2C[C@H](O)CN2C(=O)[C@H](CC)NC(=O)[C@H](C)NC)[nH]c2cc(F)ccc12` [BIRINAPANT], for which, in [2], the IC50 was 200 nM. This compound registered an EC50 at Nonstructural protein 3 [9] of 300 to 600 nM.
Consider `CC(C)C[C@H]1C(=O)N2CCC[C@H]2[C@]2(O)O[C@](NC(=O)[C@@H]3C=C4c5cccc6[nH]c(Br)c(c56)C[C@H]4N(C)C3)(C(C)C)C(=O)N12` [BROMOCRIPTINE], for which the midpoint of inhibition against Nonstructural protein 3 [1], the IC50, lay at 21600 nM. On Nonstructural protein 3 [9], this compound yielded an EC50 of 13000 nM.
The compound `O=C1OC2(c3ccccc31)c1cc(I)c(O)c(I)c1Oc1c2cc(I)c(O)c1I` [ERYTHROSINE] had an IC50 on Nonstructural protein 3 [1] of 1700 nM. The EC50 at Nonstructural protein 3 [9] amounted to 600 nM.
On Nonstructural protein 3 [1], `CN[C@@H](C)C(=O)N[C@H](C(=O)N1CCC[C@H]1C(=O)Nc1sc(-c2ncco2)nc1-c1ccccc1)C1CCCCC1` [GDC-0917] showed an IC50 of 300 nM.
`CCN(CCO)CCCC(C)Nc1ccnc2cc(Cl)ccc12` (stereo unspecified) [HYDROXYCHLOROQUINE] came in with a Ki on Nonstructural protein 3 [1] of 92300 nM.
In the case of `CO[C@@H]1[C@@H](OC(N)=O)[C@@H](O)[C@H](Oc2ccc3c(O)c(NC(=O)c4ccc(O)c(CC=C(C)C)c4)c(=O)oc3c2C)OC1(C)C` [NOVOBIOCIN], half-maximal inhibition at Nonstructural protein 3 [1] (IC50) required 14200 nM. In addition, the EC50 on Nonstructural protein 3 [9] came out at 24800 nM.
The compound `Cc1ccc(C(=O)Nc2ccc(S(=O)(=O)O)c3cc(S(=O)(=O)O)cc(S(=O)(=O)O)c23)cc1NC(=O)c1cccc(NC(=O)Nc2cccc(C(=O)Nc3cc(C(=O)Nc4ccc(S(=O)(=O)O)c5cc(S(=O)(=O)O)cc(S(=O)(=O)O)c45)ccc3C)c2)c1` [SURAMIN] yielded an IC50 on Nonstructural protein 3 [1] of 47000 nM. Besides, the Kd at Nonstructural protein 3 [9] was found to be 28000 nM. For the same compound, the EC50 at Nonstructural protein 3 [6] was 1930 to 39800 nM.
What is called EC90 is the concentration needed for an effect of 90%. Read a high EC90 as a need for much substance. `Oc1cccc(-c2c3nc(c(-c4cccc(O)c4)c4ccc([nH]4)c(-c4cccc(O)c4)c4nc(c(-c5cccc(O)c5)c5ccc2[nH]5)CC4)C=C3)c1` [TEMOPORFIN] returned an IC50 against Nonstructural protein 3 [1] of 1100 nM. The compound also displayed an EC90 in assay [10] of 120 nM. This compound also displayed an EC50 on Nonstructural protein 3 [9] of 22 nM.
On Nonstructural protein 3 [11], `CN[C@@H](C)C(=O)N[C@H]1CN(C(=O)CC(C)C)CC[C@H]2CC[C@@H](C(=O)NC(c3ccccc3)c3ccccc3)N2C1=O` [XEVINAPANT] yielded an IC50 of 4100 nM and a Ki of 13500 nM. The compound further registered a Kd at Nonstructural protein 3 [12] of 9000 nM.

The values above are taken from ChEMBL document CHEMBL4619702, “Inhibitors of the Zika virus protease NS2B-NS3” (Bioorg Med Chem Lett, 2020).
